# Test results published in patent publication US20120149741A1, “TREATMENT OF DUCHENNE MUSCULAR DYSTROPHY” (Biomarin IGA Limited, priority 2007, published 2012).
# Test system: Utrophin A promoter linked to a luciferase reporter gene in mdx mouse H2K cells
# Assay: Luciferase reporter assay (murine H2K cells)
# Format: cell-based
# Conditions: luciferase level, H2K/mdx/Utro A reporter cells, final concentration of 10 μM, 48 hrs
# Description: The cell line used for the screen is an immortalized mdx mouse H2K cell line that has been stably transfected with a plasmid containing fragment of the Utrophin A promoter including the first untranslated exon linked to a luciferase reporter gene (see FIG. 1).
# Under conditions of low temperature and interferon containing media, the cells remain as myoblasts. These are plated into 96 well plates and cultured in the presence of compound for three days. The level of luciferase is then determined by cell lysis and reading of the light output from the expressed luciferase gene utilising a plate luminometer.
# The H2K/mdx/Utro A reporter cell line was passaged twice a week until ≦30% confluent. The cells were grown at 33° C. in the presence of 10% CO2.
# To remove the myoblasts for platting, they were incubated with Trypsin/EDTA until the monolayer started to detach.
# • DMEM Gibco 41966 • 20% FCS • 1% Pen/Strep • 1% glutamine • 10 mls Chick embryo extract • Interferon (1276 905 Roche) Add fresh 10 μl/50 mls medium
# The H2K/mdx/Utro A reporter cell line cells were plated out into 96 well plates (Falcon 353296, white opaque) at a density of approximately 5000 cells/well in 190 μl normal growth medium. The plates were then incubated at 33° C. in the presence of 10% CO2 for 24 hrs.
# Compounds were dosed by adding 10 μl of diluted compound to each well giving a final concentration of 10 μM. The plates were then incubated for a further 48 hrs.
# Cells were then lysed in situ following the manufacture's protocols (Promega Steady-Glo Luciferase Assay System (E2520), then counted for 10 seconds using a plate luminometer (Victor1420).
# Compounds for screening were stored at −20° C. as 10 mM stocks in 100% DMSO until required.
row,Compound,Activity
1,"CCS(=O)(=O)c1ccc2nn(-c3ccc4ccccc4c3)nc2c1 [Example 4, 5-(ethylsulfonyl)-2-(naphthalen-2′-yl)-2H-benzo[d][1,2,3]triazole]",++ (Between 201% and 300% relative to control)
2,"CC(C)C(=O)Nc1ccc2cn(-c3ccc4ccccc4c3)nc2c1 [Example 2, N-(2-(naphthalen-2-yl)-2H-indazol-6-yl)isobutyramide]",++++ (Above 401% relative to control)
3,"CCS(=O)(=O)c1ccc2cn(-c3ccc(Cl)cc3)nc2c1 [Example 3, 2-(4-chlorophenyl)-6-(ethylsulfonyl)-2H-indazole]",++ (Between 201% and 300% relative to control)
4,"CC(C)C(=O)Nc1ccc2cnn(-c3ccc4ccccc4c3)c2c1 [Example 1, N-(1-(naphthalen-2-yl)-1H-indazol-6-yl)isobutyramide]",+ (Up to 200% relative to control)
